Assay results reported in ChEMBL document CHEMBL1201862, “PubChem BioAssay data set” (2004).
Active and inactive are the calls of the source.

Legend:
Cytochrome P450 3A4 = Cytochrome P450 3A4 (Homo sapiens, UniProt P08684);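 note: CYP3A4 tested as one member of a cytochrome P450 panel screen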
[1] = Luminescence Cell-Based Dose Response HTS to Identify Activators of Luciferase Translation or Activity in H4 […] Cells. [Related pubchem assays: 1829 (Project Summary), 1814 (Primary HTS)]; type: functional
[2] = Luminescence Cell-Based Dose Confirmation HTS to Identify Activators of 5'UTR Stem-Loop Driven Alpha-Synuclein mRNA Translation in H4 Neuroglioblastoma Cells. [Related pubchem assays: 1829 (Project Summary), 1814 (Primary HTS)]; type: functional
Cytochrome P450 2C9 = Cytochrome P450 2C9 (Homo sapiens, UniProt P11712)
Cytochrome P450 2C9, sequence (P11712 whole entry): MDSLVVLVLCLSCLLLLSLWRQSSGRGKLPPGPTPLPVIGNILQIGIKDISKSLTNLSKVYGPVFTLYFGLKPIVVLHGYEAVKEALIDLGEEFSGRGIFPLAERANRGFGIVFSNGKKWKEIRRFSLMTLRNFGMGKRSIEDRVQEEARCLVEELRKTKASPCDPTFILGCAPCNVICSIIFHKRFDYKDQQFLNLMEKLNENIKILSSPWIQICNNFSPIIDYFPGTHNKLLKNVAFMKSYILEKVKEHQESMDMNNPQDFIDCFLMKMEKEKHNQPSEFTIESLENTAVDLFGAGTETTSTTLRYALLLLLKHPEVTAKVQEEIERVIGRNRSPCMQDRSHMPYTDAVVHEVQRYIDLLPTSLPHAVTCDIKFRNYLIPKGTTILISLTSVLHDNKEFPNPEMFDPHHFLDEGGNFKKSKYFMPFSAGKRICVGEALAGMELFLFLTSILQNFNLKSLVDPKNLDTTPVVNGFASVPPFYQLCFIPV

[3] = target: 26S proteasome non-ATPase regulatory subunit 14 (Homo sapiens, UniProt O00487); test: inhibition of proteasome subunit RPN11 – biochemical, fluorescence polarization, uHTS hits, confirmation (AID 602368); type: functional
26S proteasome non-ATPase regulatory subunit 14, sequence (O00487 whole entry): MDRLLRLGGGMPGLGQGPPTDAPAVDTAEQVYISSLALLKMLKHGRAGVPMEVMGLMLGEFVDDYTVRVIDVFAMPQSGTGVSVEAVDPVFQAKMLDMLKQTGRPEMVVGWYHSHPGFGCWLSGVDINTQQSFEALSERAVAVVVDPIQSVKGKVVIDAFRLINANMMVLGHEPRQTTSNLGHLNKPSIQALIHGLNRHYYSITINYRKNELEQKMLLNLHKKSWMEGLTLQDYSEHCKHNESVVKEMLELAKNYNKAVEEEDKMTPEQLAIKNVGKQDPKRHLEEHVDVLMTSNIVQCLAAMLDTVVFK

Prothrombin = Prothrombin (Bos taurus, UniProt P00735); test: thrombin protease inhibitors – biochemical, fluorescence polarization, uHTS hits, dose response (AID 602369); type: functional
Cytochrome P450 2C19 = Cytochrome P450 2C19 (Homo sapiens, UniProt P33261); test: Cytochrome panel assay with activity outcomes. Panel member name: p450-cyp2c19 Compounds with AC50 equal or less than 10 uM are considered active; type: functional; conditions: read-out: AC50
Cytochrome P450 2C19, sequence (P33261 whole entry): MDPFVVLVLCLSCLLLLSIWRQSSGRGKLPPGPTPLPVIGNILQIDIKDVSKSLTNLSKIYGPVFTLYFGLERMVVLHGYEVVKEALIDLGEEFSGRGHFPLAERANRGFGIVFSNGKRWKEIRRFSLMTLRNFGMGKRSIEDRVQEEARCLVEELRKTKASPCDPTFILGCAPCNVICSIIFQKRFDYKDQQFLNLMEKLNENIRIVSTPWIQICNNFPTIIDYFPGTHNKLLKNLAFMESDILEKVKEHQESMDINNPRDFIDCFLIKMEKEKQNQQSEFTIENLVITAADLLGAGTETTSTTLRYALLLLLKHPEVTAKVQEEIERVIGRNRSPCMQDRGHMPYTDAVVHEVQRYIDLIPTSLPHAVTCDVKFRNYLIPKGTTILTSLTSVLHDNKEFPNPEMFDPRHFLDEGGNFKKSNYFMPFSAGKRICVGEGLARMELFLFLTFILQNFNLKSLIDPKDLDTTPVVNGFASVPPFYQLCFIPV

H4 = test: Luminescence Cell-Based Dose Response HTS to Identify Activators of 5'UTR Stem-Loop Driven Prion Protein mRNA Translation in H4 Neuroglioblastoma Cells. [Related pubchem assays: 1829 (Project Summary), 1814 (Primary HTS)]; type: functional; conditions: Homo sapiens
[4] = target: 72 kDa type IV collagenase (Homo sapiens, UniProt P08253); test: Dose Response validation of uHTS RPN11 inhibitor hits using a MMP-2 Fluorescence assay.; type: functional
72 kDa type IV collagenase, sequence (P08253 whole entry): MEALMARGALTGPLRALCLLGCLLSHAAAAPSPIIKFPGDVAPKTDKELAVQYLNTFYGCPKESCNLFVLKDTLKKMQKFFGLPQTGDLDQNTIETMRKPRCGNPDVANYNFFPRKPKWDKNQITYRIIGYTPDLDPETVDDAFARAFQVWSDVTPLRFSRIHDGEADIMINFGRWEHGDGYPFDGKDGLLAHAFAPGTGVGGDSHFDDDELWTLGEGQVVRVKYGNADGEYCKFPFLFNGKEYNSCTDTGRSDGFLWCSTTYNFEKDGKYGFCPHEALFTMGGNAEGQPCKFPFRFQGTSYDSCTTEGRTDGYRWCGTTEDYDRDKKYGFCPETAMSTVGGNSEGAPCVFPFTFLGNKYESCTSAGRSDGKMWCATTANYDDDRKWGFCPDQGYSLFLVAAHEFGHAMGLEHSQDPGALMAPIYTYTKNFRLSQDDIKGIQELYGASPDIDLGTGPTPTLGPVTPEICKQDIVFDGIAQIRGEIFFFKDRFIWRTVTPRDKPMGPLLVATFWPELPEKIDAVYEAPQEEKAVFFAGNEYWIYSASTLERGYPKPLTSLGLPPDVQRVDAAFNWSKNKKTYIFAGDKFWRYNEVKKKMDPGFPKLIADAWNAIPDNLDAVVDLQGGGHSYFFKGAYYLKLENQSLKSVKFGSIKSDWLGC

[5] = target: T1, Probable nicotinate-nucleotide adenylyltransferase (Staphylococcus aureus (strain N315), UniProt P65502); type: functional, Staphylococcus aureus subsp. aureus N315;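 for IC50 Mean: confirmatory dose-response retesting of NadD inhibitor hits first found in an ultra-high-throughput screen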
T1 sequence (P65502 whole entry): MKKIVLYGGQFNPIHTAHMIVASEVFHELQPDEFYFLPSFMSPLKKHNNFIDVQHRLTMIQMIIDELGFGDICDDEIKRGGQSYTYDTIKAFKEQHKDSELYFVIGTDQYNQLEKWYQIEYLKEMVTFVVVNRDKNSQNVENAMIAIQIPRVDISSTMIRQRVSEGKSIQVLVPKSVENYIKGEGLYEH

[6] = target: T1, Probable nicotinate-nucleotide adenylyltransferase; type: functional, Staphylococcus aureus subsp. aureus N315; conditions: read-out: IC50_Mean
cells [7] = type: functional, cell-based
[8] = target: T2, Nuclear receptor subfamily 0 group B member 1 (Homo sapiens, UniProt P51843); type: functional, cell-based;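 note: HEK293T cells transfected with SF-1 and DAX-1 plus StAR promoter luciferase reporter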
T2 sequence (P51843 whole entry): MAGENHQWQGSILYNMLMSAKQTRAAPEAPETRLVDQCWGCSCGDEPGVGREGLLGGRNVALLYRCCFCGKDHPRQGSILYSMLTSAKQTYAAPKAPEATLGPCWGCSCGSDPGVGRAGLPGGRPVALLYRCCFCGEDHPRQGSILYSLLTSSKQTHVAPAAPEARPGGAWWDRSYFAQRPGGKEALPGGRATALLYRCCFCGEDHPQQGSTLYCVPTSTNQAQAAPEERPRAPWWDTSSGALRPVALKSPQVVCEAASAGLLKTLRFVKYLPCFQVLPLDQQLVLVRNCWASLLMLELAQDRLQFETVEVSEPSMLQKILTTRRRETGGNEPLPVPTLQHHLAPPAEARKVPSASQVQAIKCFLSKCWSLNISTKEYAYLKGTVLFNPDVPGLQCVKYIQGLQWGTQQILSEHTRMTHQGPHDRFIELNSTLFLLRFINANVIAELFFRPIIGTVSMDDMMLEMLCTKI

HeLa [9] = test: viability loss in HeLa cells – cell-based, ATP luminescence, cherry-pick samples, cytotoxicity control, dose response (AID 687004); type: functional; conditions: Homo sapiens
[10] = inhibition of ADAM10 peptide cleavage – biochemical, FRET peptide substrate, recombinant human ADAM10, selectivity assay for ADAM17 exosite inhibitor project, dose response (AID 743259);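 note: ADAM10 enzyme cleaving a FRET peptide substrate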
[11] = target: Disintegrin and metalloproteinase domain-containing protein 17 (Homo sapiens, UniProt P78536); test: exosite inhibitors of ADAM17, dose response, biochemical (AID 743260)
Disintegrin and metalloproteinase domain-containing protein 17, sequence (P78536 whole entry, the tested form may be a part): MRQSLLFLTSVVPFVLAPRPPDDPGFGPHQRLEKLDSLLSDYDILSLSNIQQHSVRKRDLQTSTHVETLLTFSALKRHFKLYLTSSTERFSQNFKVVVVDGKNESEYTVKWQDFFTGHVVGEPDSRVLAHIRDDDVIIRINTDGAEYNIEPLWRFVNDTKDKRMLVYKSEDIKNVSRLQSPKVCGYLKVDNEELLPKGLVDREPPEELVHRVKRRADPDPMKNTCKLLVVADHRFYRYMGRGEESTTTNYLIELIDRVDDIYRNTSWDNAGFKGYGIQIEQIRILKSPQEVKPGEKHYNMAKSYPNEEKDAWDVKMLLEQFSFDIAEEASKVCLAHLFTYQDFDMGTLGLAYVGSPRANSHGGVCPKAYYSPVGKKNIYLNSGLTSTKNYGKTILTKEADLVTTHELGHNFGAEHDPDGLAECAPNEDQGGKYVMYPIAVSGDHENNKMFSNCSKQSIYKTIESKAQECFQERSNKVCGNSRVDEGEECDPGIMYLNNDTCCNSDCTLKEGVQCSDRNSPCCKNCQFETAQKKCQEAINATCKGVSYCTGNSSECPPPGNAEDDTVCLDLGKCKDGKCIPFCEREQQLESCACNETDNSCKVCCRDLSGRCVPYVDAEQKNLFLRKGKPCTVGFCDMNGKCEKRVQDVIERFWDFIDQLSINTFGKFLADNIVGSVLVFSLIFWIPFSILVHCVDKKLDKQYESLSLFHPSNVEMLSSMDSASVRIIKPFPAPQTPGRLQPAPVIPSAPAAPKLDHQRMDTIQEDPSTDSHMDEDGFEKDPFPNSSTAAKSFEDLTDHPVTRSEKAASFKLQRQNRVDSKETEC

Vero = test: cells; type: functional; conditions: Chlorocebus sabaeus
[12] = viability of uninfected HEp-2 cells – cell-based, HTS, cytotoxicity control for RSV inhibitor project, dose response (AID 2410); type: functional; conditions: human respiratory syncytial virus
[13] = target: T3, High affinity choline transporter 1 (Homo sapiens, UniProt Q9GZV3); test: human choline transporter blockers, potency – cell-based, 5-point CRC, membrane potential dye, dose response (AID 504840); type: functional
T3 sequence (Q9GZV3 whole entry): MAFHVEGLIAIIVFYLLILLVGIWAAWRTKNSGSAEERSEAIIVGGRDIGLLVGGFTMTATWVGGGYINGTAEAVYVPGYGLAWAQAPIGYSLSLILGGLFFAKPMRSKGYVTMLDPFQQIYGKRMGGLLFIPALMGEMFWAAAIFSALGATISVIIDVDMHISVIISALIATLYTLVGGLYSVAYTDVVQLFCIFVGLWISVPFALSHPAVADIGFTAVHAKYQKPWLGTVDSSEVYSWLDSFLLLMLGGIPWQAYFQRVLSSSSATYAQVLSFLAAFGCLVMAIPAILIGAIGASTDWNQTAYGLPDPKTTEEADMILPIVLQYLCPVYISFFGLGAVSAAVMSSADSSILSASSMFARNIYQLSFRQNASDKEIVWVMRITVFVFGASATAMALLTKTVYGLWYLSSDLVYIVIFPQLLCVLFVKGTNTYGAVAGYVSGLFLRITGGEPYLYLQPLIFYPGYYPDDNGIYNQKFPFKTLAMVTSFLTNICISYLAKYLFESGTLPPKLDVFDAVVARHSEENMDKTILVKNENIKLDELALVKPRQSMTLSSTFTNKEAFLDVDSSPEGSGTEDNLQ

[14] = target: Induced myeloid leukemia cell differentiation protein Mcl-1 (Homo sapiens, UniProt Q07820); type: functional
Induced myeloid leukemia cell differentiation protein Mcl-1, sequence (Q07820 whole entry, the tested form may be a part): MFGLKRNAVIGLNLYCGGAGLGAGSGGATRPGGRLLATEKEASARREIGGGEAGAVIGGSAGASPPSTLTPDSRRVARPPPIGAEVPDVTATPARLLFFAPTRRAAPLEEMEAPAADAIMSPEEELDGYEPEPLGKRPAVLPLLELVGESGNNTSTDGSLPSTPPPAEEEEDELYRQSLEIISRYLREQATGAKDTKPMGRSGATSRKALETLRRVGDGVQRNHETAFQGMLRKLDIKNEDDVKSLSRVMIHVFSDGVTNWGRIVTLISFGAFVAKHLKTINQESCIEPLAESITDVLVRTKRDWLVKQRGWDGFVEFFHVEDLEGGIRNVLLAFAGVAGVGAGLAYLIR

[15] = target: T4, Carboxy-terminal domain RNA polymerase II polypeptide A small phosphatase 1 (Homo sapiens, UniProt Q9GZU7); test: CTDSP1 inhibitors, concentration-response, biochemical, absorbance readout, ultra-high-throughput screen actives (AID 540297); type: functional
T4 sequence (Q9GZU7 whole entry): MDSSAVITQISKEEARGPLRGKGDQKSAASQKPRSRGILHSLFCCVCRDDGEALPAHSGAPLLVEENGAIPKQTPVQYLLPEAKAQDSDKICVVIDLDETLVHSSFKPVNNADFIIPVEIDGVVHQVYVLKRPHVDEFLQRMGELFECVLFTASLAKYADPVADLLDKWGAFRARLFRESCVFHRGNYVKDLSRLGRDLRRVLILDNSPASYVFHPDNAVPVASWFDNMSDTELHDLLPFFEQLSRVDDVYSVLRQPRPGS

Melanocortin receptor 4 = Melanocortin receptor 4 (Homo sapiens, UniProt P32245); type: functional, cell-based;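 note: Cell-based assay with luminescence read-out, confirmatory dose-response testing for agonist activity of biased ligands at MC4R; human U2OS cells with tagged receptor and beta-arrestin; potency of agonists that increase receptor coupling to beta-arrestin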
Melanocortin receptor 4, sequence (P32245 whole entry): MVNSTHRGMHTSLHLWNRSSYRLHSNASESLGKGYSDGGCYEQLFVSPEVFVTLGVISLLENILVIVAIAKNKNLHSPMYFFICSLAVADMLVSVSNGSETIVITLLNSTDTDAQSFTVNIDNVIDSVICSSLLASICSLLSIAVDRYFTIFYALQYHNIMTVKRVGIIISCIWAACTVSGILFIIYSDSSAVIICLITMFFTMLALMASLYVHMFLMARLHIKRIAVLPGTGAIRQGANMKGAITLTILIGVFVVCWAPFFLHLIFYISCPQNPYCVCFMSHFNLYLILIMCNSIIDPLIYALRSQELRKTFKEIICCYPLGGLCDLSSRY

cells [16] = type: functional, cell-based; remark: listed apart in the source
cells [17] = type: functional, cell-based; remark: listed apart in the source
H9c2 = test: cells; type: functional, cell-based; conditions: Rattus norvegicus, H9c2, Myocardium
HeLa [18] = test: ATP-based viability loss in HeLa cells – cell-based, CellTiter-Glo luminescence, cherry-pick samples, cytotoxicity control for MITF activator project, dose response (AID 540259); type: functional; conditions: Homo sapiens

Cytochrome P450 3A4, sequence (P08684 whole entry): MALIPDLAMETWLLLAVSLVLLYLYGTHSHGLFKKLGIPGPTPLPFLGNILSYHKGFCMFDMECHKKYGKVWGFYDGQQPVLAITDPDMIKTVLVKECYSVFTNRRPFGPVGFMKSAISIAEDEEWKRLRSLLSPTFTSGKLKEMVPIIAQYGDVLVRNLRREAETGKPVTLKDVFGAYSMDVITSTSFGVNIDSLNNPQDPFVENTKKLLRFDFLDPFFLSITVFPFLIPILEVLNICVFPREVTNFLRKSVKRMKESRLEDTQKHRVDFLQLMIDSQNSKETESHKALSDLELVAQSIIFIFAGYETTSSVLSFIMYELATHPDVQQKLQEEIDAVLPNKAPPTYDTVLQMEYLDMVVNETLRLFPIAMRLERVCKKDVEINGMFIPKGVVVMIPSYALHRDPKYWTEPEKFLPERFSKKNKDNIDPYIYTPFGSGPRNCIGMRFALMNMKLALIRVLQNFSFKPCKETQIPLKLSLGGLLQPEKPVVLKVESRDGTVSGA

## CCc1ccc(-c2cc(C(=O)NCc3ccco3)c3ccccc3n2)s1
Cytochrome P450 3A4
  AC50: 15.8 µM (inconclusive)
[1]
  EC50: 5.65 µM (active)
[2]
  EC50: 11.2 µM (active)
Cytochrome P450 2C9
  AC50: 2 µM (inconclusive)
[3]
  IC50: 40.7 µM (active)
Prothrombin
  IC50: 55.8 µM (active)
Cytochrome P450 2C19
  AC50: 4.47 µM (inconclusive)
H4
  EC50: 23.9 µM (active)
[4]
  IC50: > 100 µM (inactive)

## NC(CSC1(c2cccc3ccccc23)c2ccccc2-c2ccccc21)C(=O)O (stereo not drawn)
[5]
  IC50: 9.51 µM (active)
[6]
  IC50: 27.7 µM (active)

## Cc1ccc([S+]([O-])Cc2ccc(C(=O)N3CCN(C4CCCCC4)CC3)o2)cc1 (stereo not drawn)
Cells [7]
  IC50: > 67.6 µM (inactive)
[8]
  IC50: > 67.6 µM (inactive)

## C[C@@H]1CN([C@@H](C)CO)C(=O)Cc2cc(NS(=O)(=O)c3ccccc3)ccc2O[C@@H]1CN(C)Cc1ccc(Cl)c(Cl)c1
HeLa [9]
  AC50: 43.7 µM (active)

## C[C@H](CO)N1C[C@H](C)[C@@H](CN(C)Cc2ccncc2)Oc2ccc(NC(=O)CCC(F)(F)F)cc2C1=O
HeLa [9]
  AC50: 23.4 µM (active)

## O=C1NC(=O)C(c2ccc(Cl)cc2)N1 (stereo not drawn)
[10]
  IC50: > 69.4 µM (inactive)
[11]
  IC50: > 69.4 µM (inactive)

## CN1C(=O)/C(=N\c2ccc(O)cc2)c2c3ccccc3c(O)c3cccc1c23
Vero
  CC50: > 25 µM (active)
[12]
  CC50: 16.8 µM (active)
[10]
  IC50: 28.9 µM (inactive)
[11]
  IC50: > 69.5 µM (inactive)
[13]
  IC50: 12.3 µM (active)

## O=C(N/N=C\C=C\c1ccco1)c1cc(-c2ccc3ccccc3c2)[nH]n1
[5]
  IC50: 6.68 µM (active)
[14]
  IC50: 3.98 µM (active)
[15]
  IC50: 2.96 µM (active)
[6]
  IC50: 20.3 µM (active)

## CCOCCCN(Cc1ccco1)C(=O)c1cc2c(=O)[nH]c3ccc(C)cc3c2s1
Melanocortin receptor 4
  EC50: > 89.2 µM (inactive)

## Cc1nn(C(=O)CCC(=O)NCCc2ccccc2)c2ccccc12
Cells [16]
  EC50: > 29.9 µM (inactive)
Cells [17]
  IC50: > 29.9 µM (inactive)

## COc1ccc(-n2nc3cc(C)c(NC(C)=O)cc3n2)cc1
Cells [7]
  IC50: > 67.6 µM (inactive)
[8]
  IC50: > 0.278 µM (active)

## COc1cccc(C(NC(C)=O)c2nc(-c3ccc4ccccc4c3)cs2)c1 (stereo not drawn)
[10]
  IC50: 18.5 µM (inactive)
[11]
  IC50: > 69.5 µM (inactive)

## COc1ccccc1-c1cc(NC(C)=O)c2ncc(-c3cccc(C(C)=O)c3)n2c1
H9c2
  IC50: > 79 µM (inactive)
Melanocortin receptor 4
  EC50: > 89.2 µM (inactive)

## CCCCNc1ccc2c(c1)C1CC2CCN1C(=O)OCc1ccccc1 (stereo not drawn)
Cells [7]
  IC50: > 67.5 µM (inactive)
[8]
  IC50: > 67.5 µM (inactive)
HeLa [18]
  AC50: 76.2 µM (active)
